The values that follow come from a melting point compilation (Tetko et al.; mined from patent text by program, amines drawn as free bases though some values may be those of a salt).

What is called melting point is the temperature of the solid-liquid transition. `Cc1csc(-c2cccnc2)n1`: the melting point is 42 to 43 °C. With `CCCc1cc(O)nc(SCc2ccccc2)n1`, the melting point was 122 to 126 °C. In the case of `CC(C)(C)OC(=O)N1CCC[C@H]1COc1cccc2[nH]ccc12` it was 40 to 41 °C; in that of `O=C(O)Cc1ccc(NC(=O)C(COc2ccc(Cl)cc2)NS(=O)(=O)c2ccc(F)cc2)cc1` (racemic), 184 to 186 °C. `Cc1ccnc(SCc2nc3ccc(CC(=O)O)cc3[nH]2)c1` gave a melting point of 121 to 124 °C.

For the compound `CCCCCCCCCCCCCCCCCC(=O)NCC(O)C(C)(O)CCCC(C)CCCC(C)CCCC(C)C` (stereo not drawn), the melting point fell in the range of 47 to 48 °C. `CC(=O)O[C@H]1CS[C@H](C(=O)O)O1` (relative stereo) came in with a melting point of 111 °C. In the case of `CNc1nc(-c2cccc(NC(=O)c3ccccc3O)c2)c2cc(OC)c(OC)cc2n1`, the melting point is 212 to 214 °C. In the case of `Clc1cccc(CNc2ncc(Cc3ccncc3)c3ccccc23)c1` it was 141 to 142 °C.

`Cn1c(C#N)c(C#N)n(-c2cc(O)c(Cl)cc2F)c1=O`: the melting point is 210 to 212 °C. In the case of `CCCCC1=NC2(CCCC2)C(=O)N1Cc1ccc(-c2ccccc2S(=O)(=O)Nc2noc(C)c2C)c(COCC)c1` it was 148 °C. In the case of `CC(=O)c1ccc(OCCOc2ccc3ccccc3c2)cc1F` it was 144 to 146 °C. In the case of `COc1ccc(N2C(=O)CCNc3ccc(Cl)cc32)cc1` it was 198 to 199 °C. `CC(C)(C)c1cc(C(=O)c2nccs2)cc(C(C)(C)C)c1O` came in with a melting point of 106 to 108 °C. In the case of `N#Cc1ccc2cc(-c3ccc(O)cc3)oc2c1` it was 272 to 274 °C; in that of `Cn1nnnc1NCC(O)COc1cccc(CN2CCCCC2)c1` (stereo not drawn), 156 to 157 °C; in that of `CCCc1c(OCC(O)CSc2ccc(CC(=O)O)c(Cl)c2Cl)ccc(C(C)=O)c1O` (stereo not drawn), 151 to 153 °C. For the compound `CC(=O)C1C(=O)CC(CCS(=O)c2ccc(C(F)(F)F)cc2)CC1=O` (stereo not drawn), the melting point fell in the range of 99 to 100 °C. The compound `Cn1ncnc1COc1nn2c(-c3ccccc3F)nnc2cc1C1CCCO1` (stereo not drawn) had a melting point of 136 to 139 °C. To `CC(C)CC(=O)O[C@H]1C[C@H](O)C=C2C=C[C@H](C)[C@H](CC[C@@H]3C[C@@H](O)CC(=O)O3)[C@H]21` belongs 153 to 155 °C. `Cc1cc(-c2ccccc2)n2nc(C(=O)N(C)C3CCCCC3)cc2n1` gave a melting point of 158 to 162 °C. `c1ccc(C(Cn2cncn2)c2ccccc2)cc1` yielded a melting point of 107 to 108 °C.

Compound `CCC(=O)OC1(C(=O)C(O)OC(=O)C(NC(=O)OC(C)(C)C)C(C)C)CCC2C3CC(C)C4=CC(=O)C=CC4(C)C3C(O)CC21C` (stereo not drawn) came in with a melting point of 110 to 130 °C.

Compound `CCCN1C(=O)CC2CCC(C)C3CCC4(C)OOC23C1O4` (single isomer, unassigned; (-)) returned a melting point of 125 to 126 °C.

Compound `CC(C)c1ccc2cc(C(=O)Nc3ccc(OCC(C)(C)C)c(C#N)c3)sc2n1` yielded a melting point of 244 to 245 °C. In the case of `COCCOc1ccccc1OCC(O)CN1C(C)CCCC1C` (stereo not drawn) it was 92 to 94 °C. `CCn1ncc2c(NCC3CC3)c3ccccc3nc21`: the melting point lay in the range of 228 to 230 °C. As to `CC(=O)c1ccccc1-c1cccc(C(=O)O)c1`, the melting point turned out to be 143 °C. In the case of `CC1(C)OC(=C(C#N)C#N)C(C#N)=C1c1ccc(-n2cc(-c3ccccc3)nn2)cc1` it was 280 °C. Turning to `CNCCCn1c(-c2ccc(OC)cc2)csc1=Nc1ccccc1`, the melting point lay in the range of 143 to 146 °C.

Regarding `C=CCOc1cc(NC(=O)OC(C)(C)C)c([N+](=O)[O-])cc1I`, the melting point lay in the range of 93 to 95 °C.

Compound `COC(=O)c1cc(Br)c(O)c(C(C)=O)c1` yielded a melting point of 106 to 108 °C.

In turn, `CN(C)c1ccccc1Sc1nc2ccccc2[nH]1` displayed a melting point of 148 to 149 °C. Compound `O=c1c(I)c(OCc2ccc(F)cc2F)ccn1Cc1cccc(F)c1` gave a melting point of 164 to 167 °C. Turning to `CCOC(=O)Nc1ccc2nc(OCC)oc(=O)c2c1`, the melting point was in the range of 191 to 193 °C. In turn, `Cc1ccc(S(=O)(=O)OCC2Cc3ccc(O)cc3O2)cc1` (stereo not drawn) showed a melting point of 107 to 110 °C. With `COc1cccc(CCN2C(=O)c3c(F)ccc(F)c3C2(O)c2ccccc2)c1` (stereo not drawn), the melting point came out at 141 °C. On to `Cc1ncc2c(c1OCC(=O)O)COC2c1ccc(F)cc1` (stereo not drawn), for which the melting point was found to be 214 °C.

Turning to `CCc1nc(C(=O)O)c(C(=O)O)[nH]1`, the melting point lay in the range of 265 to 268 °C.

In turn, `C=CCC(CO)C(O)c1cccnc1` (stereo not drawn) had a melting point of 112 to 113 °C.

For `Cc1c(NC(=O)c2ccc(-c3ccc(Cl)s3)cc2F)ccc2cc(CN3CCCCCC3)cnc12`, the melting point was 166 to 167 °C. Take `CCN1CN2C(=N1)C(c1ccccc1Cl)=NCc1ccsc12`: the melting point lay within 153 to 154 °C.

Consider `O=C1c2ccccc2C(=O)C1(CCN1CCC(c2noc3cc(F)ccc23)CC1)c1ccccc1`, for which the melting point is 149 to 150 °C.

`O=C1NC(=O)C(c2ccc(OCCC3Oc4ccccc4N(Cc4cccc(Cl)c4)C3=O)cc2)S1` (stereo not drawn): the melting point was 70 to 72 °C. In the case of `O=C(/C=C/c1ccc(OC(F)(F)F)cc1)/C=C/c1ccc(C(F)(F)F)cc1`, the melting point was 97 to 99 °C. As to `CS(=O)(=O)Nc1c(C(=O)c2cccc(Cl)c2)[nH]c2ccc(Cl)cc12`, the melting point is 220 to 221 °C. Turning to `Nc1ccc2ccccc2c1-c1c(P(c2ccccc2)c2ccccc2)ccc2ccccc12`, the melting point was found to be 105 °C. `Cc1cc(C)cc(Sc2c(C(C)C)nc(C=NN)n2C)c1` returned a melting point of 118 to 119 °C.

On to `COc1ccc(C(=O)Nc2cccnc2)c2c1oc1ccc(NC(C)=O)cc12`, for which the melting point was > 250 °C. In the case of `COc1cc(-c2ncn(C3CC3)c2-c2ccc(C(F)(F)F)cc2)cc(OC)c1OC` it was 125 to 130 °C.

For the compound `Nc1ccc(C=CC2CSC(=O)NN2)cc1` (stereo not drawn), the melting point fell in the range of 188 to 196 °C. Regarding `CCOC(=O)c1ccc(OCCCCc2cc(C)no2)cc1`, the melting point was found to be 61 °C. To `CC=CCn1c(C)c(C)c2cnnc(OCc3cccnc3)c21` belongs 80 to 81 °C; to `CN1C(=O)[C@@H](NC(=O)CCC2CCCCC2)C[C@@H](c2ccccc2)c2ccccc21` (relative stereo), 156 to 158 °C. Take `CCOC(=O)c1c(-c2ccc(-c3ccccn3)cc2)n(C)n(-c2ccc(C#N)cc2)c1=O`: the melting point is 205 to 211 °C. Turning to `CC1CC(=O)c2cc([N+](=O)[O-])ccc2O1` (stereo not drawn), the melting point fell in the range of 144 to 145 °C.

For `NC(C(=O)O)c1ccc(C=CC2CC2)[nH]1` (stereo not drawn), the melting point was 275 °C. In the case of `CN1C(=O)CN(C2=CC(C)(C)Oc3ccc(C#N)cc32)C1=O`, the melting point fell in the range of 188 to 190 °C. Compound `CC(C)Nc1ncc2cc(-c3c(Cl)cccc3Cl)c(=O)n(C)c2n1` came in with a melting point of 194 to 196 °C.

In turn, `CCOc1ccnc2c1c(C(C)=O)cn2S(=O)(=O)c1ccccc1` registered a melting point of 151 to 153 °C. On to `Cc1nccn1-c1ccc(-c2cnc([C@H](Cc3ccccn3)N(C=O)c3cc4cc(Cl)ccc4o3)n2C)cc1`, for which the melting point lay within 159 to 161 °C.

`CSc1cccc(S(N)(=O)=O)c1` showed a melting point of 126 to 127 °C.

For `COC(=O)c1ccc2c(c1)OCC(=O)N2`, the melting point was in the range of 258 to 260 °C.
